Laboratory results reported in paper PMC4053365 (PLoS ONE, 2014).
Structures can show the parent of a compound that is named as a salt.

Assays:
MOP receptor = molecular target: T1, MOP receptor (Rattus norvegicus, UniProt P33535); test: Radioligand binding assay, [3H]DAMGO, rat brain membranes; conditions: for Selectivity ratio DOP/MOP / Selectivity ratio KOP/MOP: ratio of Ki values
T1 construct: Membranes were prepared from Sprague-Dawley rat or guinea pig brains; from tissue; host or cells: Sprague-Dawley rat brain membranes
T1 sequence (P33535 whole entry): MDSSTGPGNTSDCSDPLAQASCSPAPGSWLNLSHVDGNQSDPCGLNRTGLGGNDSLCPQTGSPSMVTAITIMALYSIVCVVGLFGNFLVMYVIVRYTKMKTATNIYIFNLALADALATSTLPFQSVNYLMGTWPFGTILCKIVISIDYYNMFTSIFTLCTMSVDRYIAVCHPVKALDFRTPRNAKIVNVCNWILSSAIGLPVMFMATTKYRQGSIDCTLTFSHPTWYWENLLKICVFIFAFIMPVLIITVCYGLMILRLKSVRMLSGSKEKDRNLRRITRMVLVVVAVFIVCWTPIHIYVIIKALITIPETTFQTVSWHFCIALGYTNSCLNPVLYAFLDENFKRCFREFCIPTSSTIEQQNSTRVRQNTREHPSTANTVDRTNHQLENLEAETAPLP

DOP receptor = molecular target: T2, DOP receptor (Rattus norvegicus, UniProt P33533); test: Radioligand binding assay, [3H][Ile5,6]deltorphin II, rat brain membranes
T2 construct: Membranes were prepared from Sprague-Dawley rat or guinea pig brains; from tissue; host or cells: Sprague-Dawley rat brain membranes
T2 sequence (P33533 whole entry): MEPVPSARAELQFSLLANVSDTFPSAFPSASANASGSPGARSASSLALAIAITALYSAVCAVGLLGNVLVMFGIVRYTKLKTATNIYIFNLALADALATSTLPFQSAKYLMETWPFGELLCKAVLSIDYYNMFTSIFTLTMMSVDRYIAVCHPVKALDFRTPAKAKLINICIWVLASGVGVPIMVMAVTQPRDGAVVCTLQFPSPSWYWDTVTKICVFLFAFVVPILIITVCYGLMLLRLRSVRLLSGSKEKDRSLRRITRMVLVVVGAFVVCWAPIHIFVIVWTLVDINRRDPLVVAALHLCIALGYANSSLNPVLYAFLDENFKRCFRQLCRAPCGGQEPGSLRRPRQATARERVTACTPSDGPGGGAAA

KOP receptor = molecular target: T3, KOP receptor (Cavia porcellus, UniProt P41144); test: Radioligand binding assay, [3H]U69,593, guinea pig brain membranes
T3 construct: Membranes were prepared from Sprague-Dawley rat or guinea pig brains; from tissue; host or cells: guinea pig brain membranes
T3 sequence (P41144 whole entry): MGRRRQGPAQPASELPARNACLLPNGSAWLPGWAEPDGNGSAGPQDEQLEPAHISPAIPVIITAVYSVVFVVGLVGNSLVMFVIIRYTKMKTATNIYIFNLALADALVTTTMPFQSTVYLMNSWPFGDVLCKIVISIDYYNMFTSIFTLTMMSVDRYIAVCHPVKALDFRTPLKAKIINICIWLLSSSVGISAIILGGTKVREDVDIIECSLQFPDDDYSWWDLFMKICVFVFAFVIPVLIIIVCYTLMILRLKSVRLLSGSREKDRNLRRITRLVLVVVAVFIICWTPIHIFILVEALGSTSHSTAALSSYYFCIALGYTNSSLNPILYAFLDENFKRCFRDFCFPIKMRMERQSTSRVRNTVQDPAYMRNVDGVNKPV

mice [1] = test: Hot-plate test (acute thermal nociception); assay type: in vivo; conditions: s.c.; for ED50: Mus musculus, sc, 0.5 h, 30 min after administration, read-out: ED50 (95% CL) Hot-plate test
mice [2] = test: Tail-flick test (acute thermal nociception); assay type: in vivo; conditions: s.c.; for ED50: Mus musculus, sc, 0.5 h, 30 min after administration, read-out: ED50 (95% CL) Tail-flick test
mice [3] = test: Observation of locomotor activity and sedation during antinociception testing; assay type: in vivo; conditions: s.c., any tested dose, about 3- to 4-fold the analgesic ED50 dose
human MOP receptor [4] = molecular target: T4, human MOP receptor (Homo sapiens, UniProt P35372); test: biochemical; assay type: biochemical; set-up: expressed in transfected cells; host or cells: CHO (CHOhMOP) cell membranes
T4 sequence (P35372 whole entry): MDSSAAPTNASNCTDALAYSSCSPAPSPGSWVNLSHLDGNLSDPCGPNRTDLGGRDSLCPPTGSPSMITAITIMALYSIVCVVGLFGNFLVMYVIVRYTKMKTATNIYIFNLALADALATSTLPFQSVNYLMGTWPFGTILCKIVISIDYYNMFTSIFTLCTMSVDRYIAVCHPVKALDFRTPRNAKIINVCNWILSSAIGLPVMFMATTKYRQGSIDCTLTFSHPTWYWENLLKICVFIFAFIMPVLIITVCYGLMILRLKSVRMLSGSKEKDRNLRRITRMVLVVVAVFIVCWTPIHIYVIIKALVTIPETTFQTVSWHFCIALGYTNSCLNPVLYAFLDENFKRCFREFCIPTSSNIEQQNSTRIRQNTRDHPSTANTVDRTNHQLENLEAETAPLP

human DOP receptor [5] = molecular target: T5, human DOP receptor (Homo sapiens, UniProt P41143); test: biochemical; set-up: expressed in transfected cells; host or cells: CHO (CHOhDOP) cell membranes
T5 sequence (P41143 whole entry): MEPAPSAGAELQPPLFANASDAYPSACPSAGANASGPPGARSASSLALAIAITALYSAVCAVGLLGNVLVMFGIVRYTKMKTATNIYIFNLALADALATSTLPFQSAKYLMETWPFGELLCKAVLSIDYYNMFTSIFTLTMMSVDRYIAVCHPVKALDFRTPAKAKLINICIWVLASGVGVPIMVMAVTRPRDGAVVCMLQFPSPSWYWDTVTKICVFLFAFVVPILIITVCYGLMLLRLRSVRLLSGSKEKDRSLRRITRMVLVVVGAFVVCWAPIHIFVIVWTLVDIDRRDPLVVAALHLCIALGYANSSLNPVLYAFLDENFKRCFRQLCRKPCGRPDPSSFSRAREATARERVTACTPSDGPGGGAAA

human KOP receptor [6] = molecular target: T6, human KOP receptor (Homo sapiens, UniProt P41145); test: biochemical; set-up: expressed in transfected cells; host or cells: CHO (CHOhKOP) cell membranes
T6 sequence (P41145 whole entry): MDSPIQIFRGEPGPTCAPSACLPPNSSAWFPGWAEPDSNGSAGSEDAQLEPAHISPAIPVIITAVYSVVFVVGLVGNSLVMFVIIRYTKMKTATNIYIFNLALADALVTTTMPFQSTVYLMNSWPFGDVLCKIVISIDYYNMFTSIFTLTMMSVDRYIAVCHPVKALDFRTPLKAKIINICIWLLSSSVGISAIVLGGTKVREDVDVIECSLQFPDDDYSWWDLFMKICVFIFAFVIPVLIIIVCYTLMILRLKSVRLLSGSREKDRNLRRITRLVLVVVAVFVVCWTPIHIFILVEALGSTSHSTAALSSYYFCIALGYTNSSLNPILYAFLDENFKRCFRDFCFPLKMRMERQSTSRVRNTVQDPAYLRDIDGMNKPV

human MOP receptor [7] = molecular target: T4, human MOP receptor; test: cell-based; assay type: cell-based; set-up: expressed in transfected cells; host or cells: CHO (CHOhMOP) stably expressing Gαqi5, whole cells
human KOP receptor [8] = molecular target: T6, human KOP receptor; assay type: cell-based; set-up: expressed in transfected cells; host or cells: CHO (CHOhKOP) stably expressing Gαqi5, whole cells
human DOP receptor [9] = molecular target: T5, human DOP receptor; assay type: cell-based; set-up: expressed in transfected cells; host or cells: CHO (CHOhDOP) stably expressing GαqG66Di5, whole cells; conditions: CHO cells co-expressing human DOP and GαqG66Di5; inactive = inactive up to 10 µM; crc = concentration response curve
MOP = molecular target: MOP; set-up: method as in earlier work; conditions: read-out: Ki MOP (previously reported); cited from earlier work
DOP = molecular target: DOP; set-up: method as in earlier work; conditions: read-out: Ki DOP (previously reported); cited from earlier work
KOP = molecular target: KOP; set-up: method as in earlier work; conditions: read-out: Ki KOP (previously reported); cited from earlier work
rodents = conditions: fraction or fold of morphine potency; cited from earlier work

## O=C1CC[C@@]2(O)[C@H]3Cc4ccc(O)c5c4[C@@]2(CCN3CCc2ccccc2)[C@H]1O5 (as salt: HCl) [Compound 6, N-phenethylnoroxymorphone]
other
  melting point: 85 to 90 °C

## Oc1ccc2c3c1O[C@H]1[C@@H](O)C=C[C@H]4[C@@H](C2)N(CCc2ccccc2)CC[C@@]341 [Compound 1, N-phenethylnormorphine]
MOP receptor
  Ki: 0.93 ± 0.14 nM
  Selectivity ratio DOP/MOP: 40
  Selectivity ratio KOP/MOP: 115
MOP receptor; vs morphine
  MOP receptor affinity greater than morphine: 7 fold
DOP receptor
  Ki: 37 ± 5.5 nM
KOP receptor
  Ki: 107 ± 18 nM
Mice [1]
  ED50: 0.11 mg/kg
Mice [1]; vs morphine
  Hot-plate test, more effective than morphine: 22 fold
Mice [2]
  ED50: 0.11 mg/kg
Mice [2]; vs morphine
  Tail-flick test, more effective than morphine: 28 fold
Mice [3]
  Locomotor activity and sedative effects: no major alterations in locomotor activity and no sedative effects
other
  melting point: 255 to 257 °C
Human MOP receptor [4]
  EC50: 10.3 ± 0.9 nM
  MOP agonist potency in [35S]GTPγS more potent than DAMGO: 2 fold
  MOP agonist potency in [35S]GTPγS more potent than morphine: about 3 fold
Human MOP receptor [4]; read-out: [35S]GTPγS functional assay MOP Emax
  Emax: 113 ± 8%
Human DOP receptor [5]
  EC50: 712 ± 86 nM
Human DOP receptor [5]; read-out: [35S]GTPγS functional assay DOP Emax
  Emax: 138 ± 17%
Human KOP receptor [6]
  EC50: 1050 nM
Human KOP receptor [6]; read-out: [35S]GTPγS functional assay KOP Emax
  Emax: 19 ± 2%
Human MOP receptor [7]
  Calcium mobilization MOP more active than 14-hydroxy analogue 4: about 3 fold
  Calcium mobilization MOP more potent than morphine: about 3 fold
  EC50: 48.8 ± 14 nM
Human MOP receptor [7]; read-out: Calcium mobilization assay MOP Emax
  Emax: 70 ± 4%
Human KOP receptor [8]
  Calcium mobilization assay KOP EC50: inactive ^d
  Calcium mobilization assay KOP Emax: inactive ^d
Human DOP receptor [9]
  Calcium mobilization assay DOP EC50: crc incomplete ^e

## Oc1ccc2c3c1O[C@H]1[C@@H](O)C=C[C@H]4[C@@H](C2)N(CCCc2ccccc2)CC[C@@]341 [Compound 2, N-phenylpropylnormorphine]
MOP receptor
  Ki: 79.5 ± 1.1 nM
  Selectivity ratio DOP/MOP: 11
  Selectivity ratio KOP/MOP: 7
DOP receptor
  Ki: 869 ± 171 nM
KOP receptor
  Ki: 565 ± 24 nM

## Oc1ccc2c3c1O[C@H]1[C@@H](O)C=C[C@@]4(O)[C@@H](C2)N(CCc2ccccc2)CC[C@]314 [Compound 4, N-Phenethyl-14-hydroxynormorphine]
MOP receptor
  Ki: 4.6 ± 0.01 nM
MOP receptor; vs compound 1
  MOP receptor affinity lower than 14-unsubstituted counterpart 1: about 5 fold
MOP receptor; vs compound 3
  MOP receptor binding affinity increase over 14-hydroxymorphine (3): about 4 fold
DOP receptor
  Ki: 163 ± 17 nM
KOP receptor
  Ki: 513 ± 66 nM
Mice [2]
  ED50: 1.14 mg/kg
Mice [3]
  Locomotor activity and sedative effects: no major alterations in locomotor activity and no sedative effects
Human KOP receptor [8]
  Calcium mobilization assay KOP EC50: inactive ^d
  Calcium mobilization assay KOP Emax: inactive ^d
Human DOP receptor [9]
  Calcium mobilization assay DOP EC50: inactive ^d

## O=C1CC[C@@]2(O)[C@H]3Cc4ccc(O)c5c4[C@@]2(CCN3Cc2ccccc2)[C@H]1O5 [Compound 5, N-Benzylnoroxymorphone]
other
  melting point: 235 to 237 °C
MOP
  Ki: […]
DOP
  Ki: […]
KOP
  Ki: […]

## O=C1CC[C@@]2(O)[C@H]3Cc4ccc(O)c5c4[C@@]2(CCN3CCc2ccccc2)[C@H]1O5 [Compound 6, N-phenethylnoroxymorphone]
Mice [1]
  ED50: 0.18 mg/kg
Mice [1]; hot-plate and tail-flick tests, vs compound 4
  Antinociceptive potency higher than 6-hydroxy counterpart 4: up to 8 fold
Mice [1]; hot-plate and tail-flick tests, vs oxymorphone
  Antinociceptive potency higher than oxymorphone: about 2 fold
Mice [2]
  ED50: 0.15 mg/kg
Mice [3]
  Locomotor activity and sedative effects: no major alterations in locomotor activity and no sedative effects

## Oc1ccc2c3c1OC1C(O)C=CC4C(C2)N(Cc2ccccc2)CCC341 (centres unmarked) [N-benzylnormorphine]
rodents
  Analgesic potency relative to morphine: less than one-tenth

## CN1CC[C@]23c4c5ccc(O)c4O[C@H]2C(=O)CC[C@@]3(O)[C@H]1C5 [Oxymorphone, reference compound]
Mice [1]
  ED50: 0.38 mg/kg
Mice [2]
  ED50: 0.35 mg/kg

## N-cyclohexylethylnormorphine
rodents
  Analgesic potency relative to morphine: one-third
